Details: 283.15 K, Liquid, Vibrating tube method

CCCCC(=O)OCC(COC(=O)CCCC)(COC(=O)CCCC)COC(=O)CCCC [pentaerythritol tetrapentanoate]
Details	mass density [kg/m3]
21592 kPa	1039.3
21628 kPa	1039.2
21658 kPa	1039.2
21689 kPa	1039.3
21727 kPa	1039.4
21760 kPa	1039.4
21791 kPa	1039.4
21822 kPa	1039.5
21860 kPa	1039.5
21891 kPa	1039.5
21922 kPa	1039.5
21954 kPa	1039.5
21992 kPa	1039.5
22024 kPa	1039.5
22061 kPa	1039.6
22093 kPa	1039.7
22125 kPa	1039.5
22164 kPa	1039.5
22192 kPa	1039.6
22231 kPa	1039.6
22263 kPa	1039.6
22302 kPa	1039.7
22335 kPa	1039.7
22367 kPa	1039.8
22406 kPa	1039.7
22439 kPa	1039.8
22472 kPa	1039.7
22512 kPa	1039.8
22545 kPa	1039.8
22579 kPa	1039.8
22619 kPa	1040
22654 kPa	1039.9
22687 kPa	1039.9
22721 kPa	1039.9
22762 kPa	1039.8
22796 kPa	1040
22830 kPa	1039.9
22871 kPa	1040
22905 kPa	1040
22947 kPa	1039.9
22982 kPa	1040.1
23016 kPa	1039.9
23059 kPa	1040
23094 kPa	1040.1
23129 kPa	1040.1
23164 kPa	1040.2
23208 kPa	1040.1
23243 kPa	1040.3
23285 kPa	1040.3
23321 kPa	1040.3
23357 kPa	1040.2
23394 kPa	1040.2
23437 kPa	1040.3
23473 kPa	1040.2
23516 kPa	1040.4
23553 kPa	1040.3
23590 kPa	1040.4
23635 kPa	1040.3
23672 kPa	1040.4
23709 kPa	1040.5
23746 kPa	1040.5
23790 kPa	1040.5
23827 kPa	1040.5
23872 kPa	1040.5
23909 kPa	1040.5
23947 kPa	1040.5
24000 kPa	1040.6
24048 kPa	1040.5
24099 kPa	1040.6
24162 kPa	1040.7
24208 kPa	1040.8
24238 kPa	1040.7
24266 kPa	1040.7
24299 kPa	1040.8
24327 kPa	1040.8
24360 kPa	1040.9
24388 kPa	1040.7
24416 kPa	1040.9
24444 kPa	1040.9
24478 kPa	1040.9
24506 kPa	1040.9
24535 kPa	1041
24569 kPa	1040.9
24598 kPa	1041
24626 kPa	1040.9
24660 kPa	1040.9
24689 kPa	1040.9
24718 kPa	1041
24746 kPa	1041
24781 kPa	1041.2
24810 kPa	1041
24845 kPa	1041.1
24874 kPa	1041.2
24903 kPa	1041.1
24934 kPa	1041.1
24964 kPa	1041.1
24999 kPa	1041
25028 kPa	1041.2
25058 kPa	1041.2
25088 kPa	1041.2
25124 kPa	1041.1
25154 kPa	1041.2
25183 kPa	1041.2
25219 kPa	1041.3
25249 kPa	1041.3
25279 kPa	1041.3
25347 kPa	1041.3
25380 kPa	1041.4
25410 kPa	1041.3
25441 kPa	1041.5
25477 kPa	1041.3
25508 kPa	1041.3
25544 kPa	1041.4
25575 kPa	1041.5
25606 kPa	1041.5
25642 kPa	1041.6
25673 kPa	1041.4
25705 kPa	1041.4
25742 kPa	1041.3
25775 kPa	1041.5
25806 kPa	1041.6
25837 kPa	1041.5
25875 kPa	1041.6
25907 kPa	1041.6
25939 kPa	1041.7
25977 kPa	1041.6
26009 kPa	1041.6
26041 kPa	1041.6
26079 kPa	1041.7
26111 kPa	1041.7
26143 kPa	1041.7
26176 kPa	1041.8
26216 kPa	1041.7
26249 kPa	1041.8
26282 kPa	1041.8
26315 kPa	1041.8
26354 kPa	1041.8
26388 kPa	1041.9
26421 kPa	1041.8
26461 kPa	1041.9
26494 kPa	1042
26528 kPa	1041.8
26567 kPa	1042
26601 kPa	1041.9
26635 kPa	1041.9
26669 kPa	1042
26710 kPa	1042
26744 kPa	1042.1
26778 kPa	1042.1
26818 kPa	1042
26853 kPa	1042.1
26893 kPa	1042.1
26928 kPa	1042.1
26963 kPa	1042.2
26997 kPa	1042.1
27039 kPa	1042.2
27074 kPa	1042.2
27110 kPa	1042.3
27152 kPa	1042.2
27187 kPa	1042.3

Source: the NIST ThermoML archive (doi:10.1021/je060271a)
